Results taken from the RepoRT retention time repository (doi:10.1093/pcp/pcn183).
Counter-ions that a name gives are not always drawn.

Assay: RP, Waters ACQUITY UPLC BEH C18, 38 °C, 0.24 mL/min; A: water + 0.1% formic acid, pH 3; B: acetonitrile + 0.1% formic acid, pH 3; gradient (min/%B) 0/0 0.25/0 0.4/9 0.8/17 1.9/100 2.1/100 2.11/0 3/0
Conditions: stereoisomer not certain

Compound | LC retention time [min]
NCC(O)CCC(N)C(=O)O (racemic) [DL-5-Hydroxylysine  hydrochloride] | 0.14
O=C(O)CC(O)C(=O)O [L-(-)-Malic acid] | 0.23
NCCCC(=O)O [gamma-Amino-n-butyric acid] | 0.17
CC(C)C(N)CC(=O)O [L-beta-homovaline-HCl] | 0.55
CN(C)c1ccccc1 [N,N-Dimethylaniline] | 1.11
O=C(O)C=Cc1ccccc1O [2-Hydroxycinnamic acid, predominantly trans] | 1.51
CC1OC(OCC2OC(Oc3c(-c4ccc(O)cc4)oc4cc(O)cc(O)c4c3=O)C(O)C(O)C2O)C(O)C(O)C1O (stereo unspecified) [kaempferol-3-O-rutinoside] | 1.42
OCCNCCO [Diethanolamine] | 0.16
N[C@@H](CO)C(=O)O [L-Serine] | 0.16
Cc1ncc(C[n+]2csc(CCOP(=O)(O)O)c2C)c(N)n1 [Thiamine monophosphate chloride dihydrate] | 0.19
O=C[C@H](O)[C@H](O)COP(=O)(O)O [D-Erythrose-4-phosphate sodium salt] | 0.16
O=C1CC(c2ccc(O)c(O)c2)Oc2cc(OC3OC(CO)C(O)C(O)C3O)cc(O)c21 (stereo unspecified) [eriodictyol-7-O-glucoside] | 1.41
CC1OC(OCC2OC(Oc3c(-c4ccccc4O)oc4cc(O)cc(O)c4c3=O)C(O)C(O)C2O)C(O)C(O)C1O (stereo unspecified) [Datiscin] | 1.4
COC1C(O)C(O)C(O)C(O)C1O [D-Pinitol] | 0.17
N[C@@H](Cc1ccc(O)c(O)c1)C(=O)O [3,4-Dihydroxy-L-phenylalanine] | 0.4
O=C(O)[C@H](O)[C@@H](O)[C@H](O)[C@H](O)CO [D-Gluconic acid sodium salt] | 0.17
NC1(C(=O)O)CC1 [1-Aminocyclopropane-1-carboxylic acid] | 0.18
CC(C)[N+](=O)[O-] [2-nitropropane] | 0.3
CCC(C)C(=O)C(=O)O (racemic) [(+-)-3-Methyl-2-oxovaleric acid sodium salt] | 1.21
CCCCCCCCCCCCCC=CC(O)C(N)COC1OC(CO)C(O)C(O)C1O [D-Glucosyl-beta1-1'-D-erythoro-Sphingosine] | 1.84
O=C(O)c1ccco1 [2-Furoic acid] | 1.15
CC1(C(=O)O)CCC2(C)CCC3(C)C(=CC(=O)C4C5(C)CCC(OC6OC(C(=O)O)C(O)C(O)C6OC6OC(C(=O)O)C(O)C(O)C6O)C(C)(C)C5CCC43C)C2C1 (stereo unspecified) [Glycyrrhizin] | 1.7

Compound | LC retention time [min]
N=C(N)c1ccccc1 [Benzamidine hydrochloride hydrate] | 0.78
CN1C=CC=CC1=CN=O [Pyridine-2-aldoxime methochloride] | 0.25
O=C(O)c1cc(=O)c2ccccc2[nH]1 [Kynurenic acid] | 1.19
O=C(O)CCCCCCC(=O)O [Suberic acid] | 1.4
Nc1nc2c(ncn2C2OC(COP(=O)(O)O)C(O)C2O)c(=O)[nH]1 (stereo unspecified) [Guanosine-5'-monophosphate] | 0.44
Cn1c(=O)[nH]c2ncn(C)c2c1=O [1,7-Dimethylxanthine] | 1.15
CC(C)CCC(=O)O [4-methyl valeric acid] | 0.56
NC(=O)C[C@H](N)C(=O)O [L-Asparagine] | 0.16
CC([NH3+])C(=O)NC(C)C(=O)[O-] [D-Ala-D-ala] | 0.19
O=c1c(-c2ccc(O)cc2)coc2cc(OC3OC(CO)C(O)C(O)C3O)ccc12 (stereo unspecified) [Daidzin] | 1.34
NCCCC(=O)NC(Cc1cnc[nH]1)C(=O)O [L-Homocarnosine] | 0.16
COc1cc(C=Cc2cc(O)cc(OC3OC(CO)C(O)C(O)C3O)c2)ccc1O (stereo unspecified) [E-4,5'-dihydroxy-3-methoxy-3'-glucopyranosylstilbene] | 1.42
NC(N)=NCC(=O)O [Glycocyamine] | 0.18
O=C(CCc1ccc(O)cc1)c1c(O)cc(O)cc1OC1OC(CO)C(O)C(O)C1O (stereo unspecified) [Phloridzin] | 1.49
COc1cc(/C=C/C(=O)O)ccc1O [trans-4-Hydroxy-3-methoxycinnamic acid] | 1.44
CC(N)(Cc1cnc[nH]1)C(=O)O (racemic) [alpha-Methyl-DL-histidine dihydrochloride] | 0.16
CC=C(C)C(=O)NCC(=O)O [N-Tigloylglycine] | 1.18
CCCC[C@H](N)C(=O)O [L-Norleucine] | 0.57
O=c1ccn(C2OC(COP(=O)(O)O)C(O)C2O)c(=O)[nH]1 (stereo unspecified) [Uridine-5'-monophosphate] | 0.26
COc1cc(-c2oc3cc(O)cc(O)c3c(=O)c2OC2OC(CO)C(O)C(O)C2O)ccc1O (stereo unspecified) [isorhamnetin-3-O-glucoside] | 1.45
NCC(=O)O [Glycine] | 0.16
Nc1ccc(O)cc1 [4-Aminophenol hydrochloride] | 0.2

Compound | LC retention time [min]
NC(CCC(=O)NC(CS)C(=O)NCC(=O)O)C(=O)O [L-Glutathione (reduced form)] | 0.95
c1cnc2c(c1)ccc1cccnc12 [1,10-Phenanthroline monohydrate] | 1.18
C[N+](C)(C)CC=O [Betaine aldehyde chloride] | 0.16
COc1cc(-c2[o+]c3cc(O)cc(OC4OC(CO)C(O)C(O)C4O)c3cc2OC2OC(CO)C(O)C(O)C2O)cc(OC)c1O (stereo unspecified) [Malvin chloride] | 1.15
CNC(C)C(=O)O (racemic) [N-Methyl-DL-Alanine] | 0.18
COc1cc(-c2[o+]c3cc(O)cc(O)c3cc2OC2OC(CO)C(O)C(O)C2O)cc(OC)c1O (stereo unspecified) [Oenin] | 1.29
O=C(O)C1=CCNCC1 [Isoguvacine hydrochloride] | 0.18
OCC1OC(OCC2OC(O)C(O)C(O)C2O)C(O)C(O)C1O (stereo unspecified) | 0.19
CC(C)CC(O)C(=O)O (stereo unspecified) [2-Hydroxyisocaproic acid] | 1.34
NCCS(=O)O [Hypotaurine] | 0.16
Nc1nc2c(ncn2C2OC(COP(=O)(O)OP(=O)(O)OC3OC(CO)C(O)C(O)C3O)C(O)C2O)c(=O)[nH]1 [Guanosine-5'-diphosphate-D-mannose sodium salt] | 0.27
CC(=O)C(=O)O [Sodium Pyruvate] | 0.22
N#Cc1cccnc1 [3-cyanopyridine] | 1.18
CC(C)CC(N)C(=O)O [L-Leucine, (Cell Culture Reagent, Crystalline)] | 0.53
CCCCCCCCCCCC(=O)OCC(O)COP(=O)([O-])OCC[N+](C)(C)C (stereo unspecified) [Phosphocholine,1-Lauroyl-2-Hydroxy-sn-Glycero-3-] | 1.79
O=c1ccc2ccc(O)c(O)c2o1 [Daphnetin] | 1.34
NCCCCN [1,4-Diaminobutane] | 0.14
O=C(O)Cc1ccccc1O [2-Hydroxyphenylacetic acid] | 1.38
C[C@@H](O)[C@H](N)C(=O)O [L-Threonine] | 0.17
NCCC(=O)NC(Cc1cnc[nH]1)C(=O)O [L-Carnosine] | 0.16
CCCC(O)C(=O)O (racemic) [DL-2-Hydroxyvaleric acid sodium salt hydrate] | 1.14
NC(=NCCCC(N)C(=O)O)NC(CC(=O)O)C(=O)O (stereo unspecified) [Argininosuccinic acid disodium salt] | 0.29

Compound | LC retention time [min]
NCCC(=O)O [beta-Alanine] | 0.16
NCCCC[C@H](N)C(=O)O [L-(+)-Lysine] | 0.15
CC(=CCNc1ncnc2c1ncn2C1OC(CO)C(O)C1O)CO (stereo not drawn) [trans-Zeatin-riboside] | 1.16
CCCCCCCCCCCCCCCC(O)C(N)CO [D-erythro-Dihydrosphingosine] | 1.98
N[C@H](CS)C(=O)O [D-Cysteine] | 0.15
CN1CC(=O)NC1=N [Creatinine,anhydrous] | 0.19
Cc1cnc(=O)[nH]c1N [5-Methylcytosine hydrochloride] | 0.25
OCC1OC(OC2C(O)C(CO)OC2(CO)OC2OC(CO)C(O)C(O)C2O)C(O)C(O)C1O [D-(+)-Melezitose hydrate] | 0.21
O=c1c(OC2OC(CO)C(O)C(O)C2O)c(-c2ccc(O)c(O)c2)oc2cc(O)cc(O)c12 (stereo unspecified) [Hyperoside] | 1.4
CN=C(N)N [Methylguanidine hydrochloride] | 0.18
CSC[C@H](N)C(=O)O [S-Methyl-L-cysteine] | 0.2
O=c1cc[nH]c(=O)[nH]1 [Uracil] | 0.31
OCC1OC(OC2C(Oc3cc4c(O)cc(O)cc4[o+]c3-c3ccc(O)c(O)c3)OC(CO)C(O)C2O)C(O)C(O)C1O (stereo unspecified) | 1.16
O=c1[nH]c(=O)c2ncn(C3OC(COP(=O)(O)O)C(O)C3O)c2[nH]1 (stereo unspecified) | 0.48
CC(=O)OC(CC(=O)O)C[N+](C)(C)C [O-Acety-L-carnitine hydrochloride] | 0.33
N[C@@H](CSCC(=O)O)C(=O)O [S-Carboxymethyl-L-cysteine] | 0.2
O=c1cc(-c2ccc(O)c(O)c2)oc2c(C3OC(CO)C(O)C(O)C3O)c(O)cc(O)c12 (stereo unspecified) [Orientin] | 1.35
CCCCCCCCCC(=O)OCC(O)COP(=O)([O-])OCC[N+](C)(C)C (stereo unspecified) [Phosphocholine,1-Decanoyl-2-Hydroxy-sn-Glycero-3-] | 1.65
Cc1ncsc1CCO [4-Methyl-5-thiazoleethanol] | 1.08
O=C(O)CCl [Chloroacetic acid] | 0.36
